# Read-outs that look alike come from different tables or passages of the source.
# Columns and labels:
# Nephotettix cincticeps [1] = assay: Foliage application test, Nephotettix cincticeps (Reference Test Example 8); format: in vivo
# Procedure: (§1) A test solution adjusted to a predetermined concentration (10% aqueous acetone solution) was applied to rice seedlings in pot culture. […] The test was duplicated.
# The death rate against larvae at the second instar born of Nephotettix cincticeps was calculated in the same manner as in Reference Test Example 7.
# Aphis gossypii = assay: Foliage application test for Aphis gossypii, cucumber leaf disk (Test Example 3); format: in vivo; details: 16-keto aspergillimide 1.25 ppm alone
# From the text: Test solutions adjusted to a predetermined concentration (50% aqueous acetone solution; 0.05% Tween 20 added) were applied to a leaf disk having a diameter of 2.0 cm cut out from a cucumber grown in a pot.
# (§2) Colby's formula: Theoretical value (%)=100−(A×B)/100
# [2] = system: Nilaparvata lugens which is sensitive to imidacloprid; assay: Foliage application test for Nilaparvata lugens, imidacloprid-sensitive strain (Test Example 4, comparison); format: in vivo; details: 6 days after release
# Procedure: (§3) Test solutions adjusted to a predetermined concentration (50% aqueous acetone solution) applied to rice seedlings in a pot for foliage application. […] The test was duplicated.
# (§4) For comparison, a test was carried out in the same manner as described above, except that a Nilaparvata lugens strain which is highly sensitive to imidacloprid was used.
# (§5) Regarding the origin of the test insect pests, Nilaparvata lugens which is low-sensitive to imidacloprid was an insect which had been collected outdoors in Kumamoto Prefecture, 2007, and Nilaparvata lugens which is sensitive to imidacloprid was an insect which had been collected in Kagoshima Prefecture and was then subjected to indoor successive raising.
# [3] = system: Frankliniella occidentalis; assay: Foliage application test, Frankliniella occidentalis, haricot leaf disk (Reference Test Example 9); format: in vivo
# From the text: A leaf disk having a diameter of 2.8 cm was cut out from haricot in pot culture, and a test solution adjusted to a predetermined concentration (50% aqueous acetone solution, with 0.05% Tween 20 added) was applied thereto. The leaf disk was air-air dried, and first instar larvae were released.
# Laodelphax striatellus [4] = assay: Laodelphax striatellus soil drenching application test (Test Example 1); details: 16-keto aspergillimide 0.2 mg/seedling alone
# Procedure: Test solutions adjusted to a predetermined concentration (10% aqueous acetone solution) were applied to rice seedling in a pot by soil drenching. The rice seedling was allowed to stand for 3 days. Second instar larvae were released and was then allowed to stand in a humidistat chamber (light period 16 hr−dark period 8 hr) (25° C.).
# Death rate (%)={number of dead larvae/(number of survived larvae+number of dead larvae)}×100
# wherein A: 100−(death rate when application was performed only with 16-keto aspergillimide); and
# Sogatella furcifera [5] = assay: Soil drenching application test, Sogatella furcifera (Reference Test Example 4); format: in vivo
# Procedure: (§6) A test solution adjusted to a predetermined concentration (10% aqueous acetone solution) was applied to rice seedlings in a pot by soil drenching. The rice seedlings were allowed to stand for 3 days. […] The test was duplicated.
# The death rate against larvae at the second instar born of Sogatella furcifera was calculated in the same manner as in Reference Test Example 3.
# Sogatella furcifera [6] = assay: Foliage application test, Sogatella furcifera (Reference Test Example 7); format: in vivo
# From the text: as §1
# [7] = system: larvae at the third instar born of Haemonchus contortus; details: The Journal of Antibiotics, 1997, 50(10), 840-846; cited from earlier work
# Nilaparvata lugens = assay: Soil drenching application test, Nilaparvata lugens (Reference Test Example 3); format: in vivo
# From the text: as §6
# [8] = system: Haemaphysalis longicornis; assay: Tickcidal effect against Haemaphysalis longicornis, dry film in glass vial (Test Example 5); format: in vivo; details: Haemaphysalis longicornis, 48 h, 2 days after release; for pest or weed control at 1 ppm: 16-keto aspergillimide 1 ppm alone; for pest or weed control at 2 ppm: 16-keto aspergillimide 2 ppm alone
# Procedure: Acetone solutions (30 μl) adjusted to predetermined concentrations were placed in 4 mL-volume glass vials. The vials were placed on a shaker, and a dry film of the compound was prepared on the inner wall of the vials. The vials were dried for 24 hr or more. Larvae (10 or more heads) were released in the vials, and the vials were lidded. The vials were then left to stand in a humidistat chamber (25° C., humidity 85%, fully darkened conditions). […] The test was duplicated.
# as §2
# [9] = system: Haemaphysalis longicornis; assay: Tickicidal effect against Haemaphysalis longicornis on body surface of mouse (Test Example 6); format: in vivo; details: for Death rate (%): mouse body surface, 3 days after release
# Procedure: Skin hair on the back of mouse (ICR, male, 5 week olds) was clipped in a diameter of about 2 cm, and a 15-mL polystyrene conical tube cut to have a height of about 1.5 cm was bonded to the body surface of the mouse with an instant adhesive. Test solutions (20 μl) adjusted with ethanol were dropped on the body surface of mice within the bonded tube. After thorough drying, larvae (10 or more heads) were released within the tube, and the tube was lidded. […] The test was hexaplicated.
# as §2
# Nephotettix cincticeps [10] = assay: Soil drenching application test, Nephotettix cincticeps (Reference Test Example 5); format: in vivo
# Procedure: as §6
# The death rate against second instar larvae was calculated in the same manner as in Reference Test Example 3.
# Laodelphax striatellus [11] = assay: Foliage application test for Laodelphax striatellus (Test Example 2); format: in vivo; details: 16-keto aspergillimide 2.5 ppm alone
# From the text: as §2
# Laodelphax striatellus [12] = assay: Root dipping application test, Laodelphax striatellus (Reference Test Example 1); format: in vivo
# From the text: (§7) A test solution adjusted to a predetermined concentration (10% aqueous acetone solution) was applied to the root of wheat seedlings in water culture. […] The test was duplicated.
# As is apparent from Table 15, the systemic insecticidal activity of 16-keto aspergillimide was much higher than that of a control compound, Asperparaline A.
# The 16-keto aspergillimide and Asperparaline A used in this test were obtained according to methods described in The Journal of Antibiotics, 1997, 50(10), 840-846. This is true of the following test examples.
# [13] = system: Nilaparvata lugens which is low-sensitive to imidacloprid; assay: Foliage application test for Nilaparvata lugens, imidacloprid low-sensitive strain (Test Example 4); format: in vivo; details: for Death rate (%): low-sensitive strain, 6 days after release
# Procedure: as §3, §4, §5
# [14] = system: Frankliniella occidentalis; assay: Soil drenching application test, Frankliniella occidentalis (Reference Test Example 6); format: in vivo
# From the text: A test solution adjusted to a predetermined concentration (10% aqueous acetone solution) was applied to cucumber seedlings in pot couture by soil drenching. The cucumber seedlings were allowed to stand for 4 days. A leaf disk having a diameter of 2.8 cm was then cut out from cucumber seedlings, and first instar larvae were released. […] The test was duplicated.
# [15] = system: Trigonotylus caelestialium; assay: Root dipping application test, Trigonotylus caelestialium (Reference Test Example 2); format: in vivo
# From the text: as §7
# [16] = 100 ppm, rice seedlings, 3 days after release
# [17] = 1.0 mg/seedling, rice seedlings, 3 days after release
# [18] = read-out: Death rate (%), Table 9
# [19] = read-out: Death rate (%), Table 10
# [20] = 16-keto aspergillimide 1 μg/2 cm^2 alone
# [21] = 0.5 μg/seedling, wheat seedlings, 3 days after release
structure (smiles),measurement,setting,value
"C[C@H]1CC(=O)N2C[C@]34C[C@]5(CC(=O)N(C)C5=O)C(C)(C)[C@@H]3C[C@]12C(=O)N4C [16-Keto aspergillimide, 16-keto aspergillimide]",insecticidal activity in foliage application,Nephotettix cincticeps [1],exhibited insecticidal activity
same,Death rate (%),Nephotettix cincticeps [1]; [16],100%
same,Theoretical value calculated by the Colby's formula (%),Aphis gossypii,26%
same,Death rate (%),"Aphis gossypii; leaf disk, 3 days after release",26%
same,Death rate (%),[2]; treatment concentration 5 ppm,95%
same,Death rate (%),[2]; treatment concentration 20 ppm,100%
same,Death rate (%),[2]; treatment concentration 50 ppm,100%
same,Death rate (%),"[3]; 100 ppm, haricot leaf disk, 3 days after release",100%
same,insecticidal activity by foliage application,[3]; foliage application,exhibited insecticidal activity
same,Theoretical value (%) calculated by the Colby's formula,Laodelphax striatellus [4],30%
same,Death rate (%),"Laodelphax striatellus [4]; soil drenching, 3 days after release",30%
same,systemic insecticidal activity,Sogatella furcifera [5],exhibited systemic insecticidal activity
same,Death rate (%),Sogatella furcifera [5]; [17],100%
same,insecticidal activity by foliage application,Sogatella furcifera [6],exhibited insecticidal activity
same,Death rate (%),Sogatella furcifera [6]; [16],100%
same,anthelmintic activity,[7],anthelmintically active
same,systemic insecticidal activity,Nilaparvata lugens,exhibited systemic insecticidal activity
same,Death rate (%),Nilaparvata lugens; [17],100%
same,pest or weed control at 1 ppm,[8]; [18],10%
same,pest or weed control at 2 ppm,[8]; [18],17%
same,pest or weed control at 1 ppm,[8]; [19],14%
same,pest or weed control at 2 ppm,[8]; [19],20%
same,Theoretical value (%) by Colby's formula,[9]; [20],22%
same,Death rate (%),[9]; [20],22%
same,Death rate (%),[9]; 16-keto aspergillimide 2 μg/2 cm^2 alone,57%
same,Theoretical value (%) by Colby's formula,[9]; 16-keto aspergillimide alone,57%
same,systemic insecticidal activity,Nephotettix cincticeps [10],exhibited systemic insecticidal activity
same,Death rate (%),Nephotettix cincticeps [10]; [17],100%
same,Theoretical value (%) calculated by the Colby's formula,Laodelphax striatellus [11],65%
same,Death rate (%),"Laodelphax striatellus [11]; foliage application, 3 days after release",65%
same,Death rate (%) for each amount of test chemical compound,Laodelphax striatellus [12]; [21],100%
same,systemic insecticidal activity compared with control compound Asperparaline A,Laodelphax striatellus [12]; Table 15,much higher
same,death rate for the low-sensitive strain compared with the high-sensitive strain,[13]; Table 7 against Table 8,the same
same,Death rate (%),[13]; treatment concentration 5 ppm,60%
same,Death rate (%),[13]; treatment concentration 20 ppm,95%
same,Death rate (%),[13]; treatment concentration 50 ppm,100%
same,systemic insecticidal activity,[14],exhibited systemic insecticidal activity
same,Death rate (%),"[14]; 2.0 mg/seedling, cucumber seedlings, 6 days after release",100%
same,systemic insecticidal activity,[15],exhibited systemic insecticidal activity
same,Death rate (%),[15]; [21],100%

# Source: patent publication US20110263520A1, “COMPOSITION FOR USE IN CONTROLLING HARMFUL ORGANISMS THAT CONTAINS 16-KETO ASPERGILLIMIDE” (priority 2008, published 2011)
